Values of other authors, collected in patent US20240374634A1, “NUTRACEUTICAL OPHTHALMIC COMPOSITION FOR THE TREATMENT OF RETINAL PATHOLOGIES HAVING A NEOVASCULAR COMPONENT” (Laboratoires THEA, priority 2018, published 2024).

Details: 300 patients over three years, after a significant increase in DHA in cells

In the case of `CC/C=C\C/C=C\C/C=C\C/C=C\C/C=C\C/C=C\CCC(=O)O` [DHA, Docosahexaenoic acid (DHA)], the “reduction in the risks of developing neovascular AMD” value is given as 68%.
